# Data: US12565490B2, “Inhibitors of Receptor Interacting Protein Kinase I for the treatment of disease” (Board of Regents, The University of Texas System, priority 2020, dated 2026)
# Tested on: human monocytic cell line U937
# Assay: Human U937 cellular necroptosis assay
# Format: cell-based
# Conditions: U-937; U937 cells stimulated with 25 ng/mL human TNFalpha and 25 μM z-VAD-FMK; 22 hr; viability by Cell Titer-Glo 2.0; read-out: hU937 IC50
# Description: Human U937 Cellular Necroptosis Assay
# The human monocytic cell line U937 (CRL-1593.2) may be purchased from ATCC. The cells are routinely maintained in RPMI-1640 Medium (Gibco, Catalog #11875-093) supplemented with 10% heat inactivated fetal bovine serum (Gibco, Catalog #16140-071), 100 units/mL penicillin and 100 μg/mL streptomycin (Gibco, Catalog #15140-122), in a humidified incubator (37° C., 5% CO2). For the assay, cells are resuspended in RPMI-1640 phenol red free Media (Gibco, Catalog #11835-030) supplemented with 10% fetal bovine serum (Sigma, Catalog #F2442), 100 units/mL penicillin and 100 ug/mL streptomycin. Cells are stimulated with 25 ng/mL human TNFalpha (Cell Sciences, Catalog #CSI15659B) and 25 μM z-VAD-FMK (R&D Systems, Catalog #FMK001) followed by seeding 5000 cells per well in a volume of 40 μL to a white, CulturPlate-384 (Perkin Elmer, Catalog #6007680). Stock solutions of the test compounds are prepared in 100% DMSO (Sigma, Catalog #D2650) and serially diluted 1:3 using 100% DMSO. Compounds are additionally diluted 1:40 in assay medium, and 10 μL/well was transferred to the plate. Following the compound addition, the plate is incubated at 37° C. and 5% CO2 for 22 hr. After 22 hr, viability is assessed with the addition of 20 μL of Cell Titer-Glo 2.0 (Promega, Catalog #G9243). The tissue culture plate is shaken on an orbital shaker at 300 RPM for 15 minutes at room temperature in the dark. Luminescence is measured using a PerkinElmer Envision™ plate reader. IC50 values are calculated using a four-parameter logistic curve fit using Genedata Screener software. Compounds disclosed herein are expected to have activity in this assay.
row,SMILES,IC50 [nM]
1,"Cc1cnc(C(=O)NC2CCc3cc(F)cc(F)c3NC2=O)nc1-c1ccccc1 (stereo not drawn) [Example 7, N-(7,9-difluoro-2-oxo-2,3,4,5-tetrahydro-1H-benzo[b]azepin-3-yl)-5-methyl-4-phenylpyrimidine-2-carboxamide]",22.2
2,"Cc1ccc(-c2nc(C(=O)N[C@H]3COc4cc(C#N)ccc4N(C)C3=O)ncc2Cl)c(F)c1 [Example 139, (S)-5-chloro-N-(8-cyano-5-methyl-4-oxo-2,3,4,5-tetrahydrobenzo[b]-[1,4]oxazepin-3-yl)-4-(2-fluoro-4-methylphenyl)pyrimidine-2-carboxamide]",32.6
3,"Cc1cnc(C(=O)N[C@H]2COc3cccnc3N(C)C2=O)nc1-c1ccccc1F [Example 45, (S)-4-(2-fluorophenyl)-5-methyl-N-(5-methyl-4-oxo-2,3,4,5-tetrahydropyrido[3,2-b][1,4]oxazepin-3-yl)pyrimidine-2-carboxamide]",10
4,"CN1C(=O)[C@@H](NC(=O)c2ncc(Cl)c(-c3ncccc3F)n2)COc2cc(Cl)cnc21 [Example 108, (S)-5-chloro-N-(8-chloro-5-methyl-4-oxo-2,3,4,5-tetrahydropyrido[3,2-b]-[1,4]oxazepin-3-yl)-4-(3-fluoropyridin-2-yl)pyrimidine-2-carboxamide]",121
5,"CN1C(=O)[C@@H](NC(=O)c2ncc(Cl)c(-c3ccc(F)cc3F)n2)COc2cc(F)cnc21 [Example 73, (S)-5-chloro-4-(2,4-difluorophenyl)-N-(8-fluoro-5-methyl-4-oxo-2,3,4,5-tetrahydropyrido[3,2-b]-[1,4]oxazepin-3-yl)pyrimidine-2-carboxamide]",11.4
6,"CN1C(=O)[C@@H](NC(=O)c2ncc(Cl)c(-c3ccc(F)cc3F)n2)COc2ccc(NCC(F)(F)CCl)cc21 [Example 140, (S)-5-chloro-N-(7-((3-chloro-2,2-difluoropropyl)amino)-5-methyl-4-oxo-2,3,4,5-tetrahydrobenzo[b]-[1,4]oxazepin-3-yl)-4-(2,4-difluorophenyl)pyrimidine-2-carboxamide]",35.4
7,"Cc1ccc(-c2nc(C(=O)N[C@H]3COc4ccc(N5CC6(CCOCC6)C5)cc4N(C)C3=O)ncc2Cl)cc1F [Example 145, (S)-5-chloro-4-(3-fluoro-4-methylphenyl)-N-(5-methyl-4-oxo-7-(7-oxa-2-azaspiro[3.5]nonan-2-yl)-2,3,4,5-tetrahydrobenzo[b]-[1,4]oxazepin-3-yl)pyrimidine-2-carboxamide]",11
8,"Cc1cnc(C(=O)N[C@H]2COc3cc(C#N)ccc3N(C)C2=O)nc1C1CCCOC1 (stereo partly drawn) [Example 43, N-((S)-8-cyano-5-methyl-4-oxo-2,3,4,5-tetrahydro-benzo[b][1,4]oxazepin-3-yl)-5-methyl-4-(tetrahydro-2H-pyran-3-yl)pyrimidine-2-carboxamide]",154
9,"Cc1ccc(-c2nc(C(=O)N[C@H]3COc4cccnc4N(C)C3=O)ncc2Cl)c(F)c1 [Example 53, (S)-5-chloro-4-(2-fluoro-4-methylphenyl)-N-(5-methyl-4-oxo-2,3,4,5-tetrahydro-pyrido[3,2-b][1,4]oxazepin-3-yl)pyrimidine-2-carboxamide]",11.7
10,"Cc1cc(F)ccc1-c1nc(C(=O)N[C@H]2COc3cc(Cl)cnc3N(C)C2=O)ncc1F [Example 92, (S)-N-(8-chloro-5-methyl-4-oxo-2,3,4,5-tetrahydro-pyrido[3,2-b][1,4]oxazepin-3-yl)-5-fluoro-4-(4-fluoro-2-methylphenyl)pyrimidine-2-carboxamide]",15.2
11,"CN1C(=O)[C@@H](NC(=O)c2ncc(CO)c(-c3ccccc3)n2)COc2cc(Cl)cnc21 [Example 126, (S)-N-(8-chloro-5-methyl-4-oxo-2,3,4,5-tetrahydro-pyrido[3,2-b][1,4]oxazepin-3-yl)-5-(hydroxymethyl)-4-phenylpyrimidine-2-carboxamide]",30
12,"O=C(NC1CCc2ccccc2NC1=O)c1ncc(C2CC2)c(-c2ccccc2)n1 (stereo not drawn) [Example 2, 5-cyclopropyl-N-(2-oxo-2,3,4,5-tetrahydro-1H-benzo[b]azepin-3-yl)-4-phenylpyrimidine-2-carboxamide]",509
